Measured values taken from the kinase profiling compilation of Christmann-Franck et al. (2016).

Experiments:
Assay in all cases: KINOMEscan competition binding
Settings in all cases: compound 10.0 µM
[1] = target: PIP5K1A (human) (UniProt Q99755)
[2] = target: TLK2 (human) (UniProt Q86UE8)
[3] = target: STK32C (human) (UniProt Q86UX6)
[4] = target: PRKG1 (human) (UniProt Q13976)
[5] = target: TXK (human) (UniProt P42681)
[6] = target: PIM2 (human) (UniProt Q9P1W9)
[7] = target: RET (human) (UniProt P07949)
[8] = target: BMPR1B (human) (UniProt O00238)
[9] = target: MAP2K1 (human) (UniProt Q02750)
MAP2K1 (human), sequence (Q02750 whole entry, looked up): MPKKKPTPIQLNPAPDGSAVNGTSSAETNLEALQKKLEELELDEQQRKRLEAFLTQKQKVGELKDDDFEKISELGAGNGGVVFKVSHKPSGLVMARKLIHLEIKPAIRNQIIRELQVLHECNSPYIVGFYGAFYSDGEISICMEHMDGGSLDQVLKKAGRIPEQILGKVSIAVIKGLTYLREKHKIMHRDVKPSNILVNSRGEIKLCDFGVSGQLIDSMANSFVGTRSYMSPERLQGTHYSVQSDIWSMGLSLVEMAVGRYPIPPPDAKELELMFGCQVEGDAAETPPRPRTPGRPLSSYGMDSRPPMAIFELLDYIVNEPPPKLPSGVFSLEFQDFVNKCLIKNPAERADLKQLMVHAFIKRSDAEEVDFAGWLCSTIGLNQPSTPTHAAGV

[10] = target: CLK4 (human) (UniProt Q9HAZ1)
[11] = target: MAP2K4 (human) (UniProt P45985)
[12] = target: DAPK3 (human) (UniProt O43293)
[13] = target: CDK15 (human) (UniProt Q96Q40)
[14] = target: MAPK7 (human) (UniProt Q13164)
MAPK7 (human), sequence (Q13164 whole entry, looked up): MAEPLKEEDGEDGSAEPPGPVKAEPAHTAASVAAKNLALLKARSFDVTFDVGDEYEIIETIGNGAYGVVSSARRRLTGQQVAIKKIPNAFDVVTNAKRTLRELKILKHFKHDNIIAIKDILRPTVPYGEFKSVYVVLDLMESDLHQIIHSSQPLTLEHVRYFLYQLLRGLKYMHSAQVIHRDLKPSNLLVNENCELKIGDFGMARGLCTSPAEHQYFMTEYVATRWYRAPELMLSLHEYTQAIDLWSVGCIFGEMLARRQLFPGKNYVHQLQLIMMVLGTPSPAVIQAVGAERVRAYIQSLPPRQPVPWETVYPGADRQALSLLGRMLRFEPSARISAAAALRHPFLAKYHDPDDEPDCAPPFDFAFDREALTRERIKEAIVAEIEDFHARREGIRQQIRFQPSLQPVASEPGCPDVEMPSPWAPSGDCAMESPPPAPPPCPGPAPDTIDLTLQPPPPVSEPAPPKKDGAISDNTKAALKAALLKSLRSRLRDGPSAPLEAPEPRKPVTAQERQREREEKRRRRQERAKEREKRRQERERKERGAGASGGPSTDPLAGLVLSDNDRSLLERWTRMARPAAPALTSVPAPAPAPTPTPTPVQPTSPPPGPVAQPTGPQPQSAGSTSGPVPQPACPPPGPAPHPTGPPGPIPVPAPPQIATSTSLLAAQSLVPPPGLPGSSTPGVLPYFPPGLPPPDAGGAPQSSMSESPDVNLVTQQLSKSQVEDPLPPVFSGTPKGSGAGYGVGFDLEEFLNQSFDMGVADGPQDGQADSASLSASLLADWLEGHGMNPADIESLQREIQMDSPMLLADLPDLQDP

[15] = target: PHKG2 (human) (UniProt P15735)
[16] = target: PRKD2 (human) (UniProt Q9BZL6)
[17] = target: MKNK1 (human) (UniProt Q9BUB5)
[18] = target: STK32B (human) (UniProt Q9NY57)
[19] = target: TEK (human) (UniProt Q02763)
[20] = target: STK16 (human) (UniProt O75716)
[21] = target: MYLK (human) (UniProt Q15746)
[22] = target: TESK1 (human) (UniProt Q15569)
[23] = target: CHEK2 (human) (UniProt O96017)
CHEK2 (human), sequence (O96017 whole entry, looked up): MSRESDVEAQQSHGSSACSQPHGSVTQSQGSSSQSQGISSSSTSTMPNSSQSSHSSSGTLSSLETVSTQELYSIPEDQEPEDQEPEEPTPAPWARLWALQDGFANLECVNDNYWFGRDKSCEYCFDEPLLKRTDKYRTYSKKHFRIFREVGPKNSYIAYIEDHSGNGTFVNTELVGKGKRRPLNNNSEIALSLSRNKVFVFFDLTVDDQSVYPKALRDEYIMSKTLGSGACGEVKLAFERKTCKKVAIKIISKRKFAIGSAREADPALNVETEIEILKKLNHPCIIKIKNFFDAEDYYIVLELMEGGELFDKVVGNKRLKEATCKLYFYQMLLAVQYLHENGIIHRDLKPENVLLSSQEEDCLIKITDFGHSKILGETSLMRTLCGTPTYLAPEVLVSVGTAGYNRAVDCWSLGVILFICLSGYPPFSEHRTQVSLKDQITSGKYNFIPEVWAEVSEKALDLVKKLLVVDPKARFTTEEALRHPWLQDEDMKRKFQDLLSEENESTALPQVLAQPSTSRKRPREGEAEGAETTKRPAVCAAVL

[24] = target: CAMK1G (human) (UniProt Q96NX5)
CAMK1G (human), sequence (Q96NX5 whole entry, looked up): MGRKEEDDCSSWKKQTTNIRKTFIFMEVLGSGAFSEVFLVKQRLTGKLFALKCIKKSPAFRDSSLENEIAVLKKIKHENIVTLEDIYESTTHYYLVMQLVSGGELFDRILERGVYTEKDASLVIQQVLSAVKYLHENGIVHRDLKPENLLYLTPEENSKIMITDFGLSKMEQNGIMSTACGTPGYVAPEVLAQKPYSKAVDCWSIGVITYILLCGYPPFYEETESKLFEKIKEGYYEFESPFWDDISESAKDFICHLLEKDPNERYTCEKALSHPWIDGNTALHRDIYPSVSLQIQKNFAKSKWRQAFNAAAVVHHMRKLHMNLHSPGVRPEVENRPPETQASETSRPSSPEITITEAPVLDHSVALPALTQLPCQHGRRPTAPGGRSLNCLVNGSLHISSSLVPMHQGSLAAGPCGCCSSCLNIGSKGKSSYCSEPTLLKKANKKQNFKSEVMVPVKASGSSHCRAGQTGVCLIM

[25] = target: PKMYT1 (human) (UniProt Q99640)
[26] = target: CDK8 (human) (UniProt P49336)
[27] = target: PLK1 (human) (UniProt P53350)
PLK1 (human), sequence (P53350 whole entry, looked up): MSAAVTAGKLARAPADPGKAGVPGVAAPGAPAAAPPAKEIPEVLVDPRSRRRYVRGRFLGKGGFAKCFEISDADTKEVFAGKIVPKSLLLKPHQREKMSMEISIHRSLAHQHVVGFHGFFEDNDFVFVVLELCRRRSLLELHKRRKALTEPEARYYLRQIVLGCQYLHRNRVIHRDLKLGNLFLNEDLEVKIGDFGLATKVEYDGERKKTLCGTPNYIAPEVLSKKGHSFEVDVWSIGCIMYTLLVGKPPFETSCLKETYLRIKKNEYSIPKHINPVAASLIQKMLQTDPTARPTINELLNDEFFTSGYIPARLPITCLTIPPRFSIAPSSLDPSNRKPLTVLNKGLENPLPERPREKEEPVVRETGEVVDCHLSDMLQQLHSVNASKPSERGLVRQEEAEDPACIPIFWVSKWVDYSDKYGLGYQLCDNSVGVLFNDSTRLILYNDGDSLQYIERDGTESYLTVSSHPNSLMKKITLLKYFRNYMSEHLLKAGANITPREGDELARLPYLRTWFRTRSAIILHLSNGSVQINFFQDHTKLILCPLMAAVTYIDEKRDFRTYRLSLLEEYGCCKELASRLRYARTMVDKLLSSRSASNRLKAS

[28] = target: CDK9 (human) (UniProt P50750)
CDK9 (human), sequence (P50750 whole entry, looked up): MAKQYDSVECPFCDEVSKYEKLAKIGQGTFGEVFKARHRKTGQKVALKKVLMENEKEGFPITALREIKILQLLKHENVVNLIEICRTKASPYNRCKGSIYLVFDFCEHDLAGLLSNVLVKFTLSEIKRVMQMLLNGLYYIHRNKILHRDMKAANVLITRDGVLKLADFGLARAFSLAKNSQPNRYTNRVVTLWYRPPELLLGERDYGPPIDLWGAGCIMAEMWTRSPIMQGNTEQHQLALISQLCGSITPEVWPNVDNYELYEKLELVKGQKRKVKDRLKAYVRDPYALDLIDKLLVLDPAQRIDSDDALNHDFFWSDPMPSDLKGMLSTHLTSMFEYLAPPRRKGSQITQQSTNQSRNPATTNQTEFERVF

[29] = target: NEK5 (human) (UniProt Q6P3R8)
[30] = target: FER (human) (UniProt P16591)
[31] = target: LCK (human) (UniProt P06239)
[32] = target: SRMS (human) (UniProt Q9H3Y6)
[33] = target: ADCK4 (human) (UniProt Q96D53)
[34] = target: MAP4K3 (human) (UniProt Q8IVH8)
MAP4K3 (human), sequence (Q8IVH8 whole entry, looked up): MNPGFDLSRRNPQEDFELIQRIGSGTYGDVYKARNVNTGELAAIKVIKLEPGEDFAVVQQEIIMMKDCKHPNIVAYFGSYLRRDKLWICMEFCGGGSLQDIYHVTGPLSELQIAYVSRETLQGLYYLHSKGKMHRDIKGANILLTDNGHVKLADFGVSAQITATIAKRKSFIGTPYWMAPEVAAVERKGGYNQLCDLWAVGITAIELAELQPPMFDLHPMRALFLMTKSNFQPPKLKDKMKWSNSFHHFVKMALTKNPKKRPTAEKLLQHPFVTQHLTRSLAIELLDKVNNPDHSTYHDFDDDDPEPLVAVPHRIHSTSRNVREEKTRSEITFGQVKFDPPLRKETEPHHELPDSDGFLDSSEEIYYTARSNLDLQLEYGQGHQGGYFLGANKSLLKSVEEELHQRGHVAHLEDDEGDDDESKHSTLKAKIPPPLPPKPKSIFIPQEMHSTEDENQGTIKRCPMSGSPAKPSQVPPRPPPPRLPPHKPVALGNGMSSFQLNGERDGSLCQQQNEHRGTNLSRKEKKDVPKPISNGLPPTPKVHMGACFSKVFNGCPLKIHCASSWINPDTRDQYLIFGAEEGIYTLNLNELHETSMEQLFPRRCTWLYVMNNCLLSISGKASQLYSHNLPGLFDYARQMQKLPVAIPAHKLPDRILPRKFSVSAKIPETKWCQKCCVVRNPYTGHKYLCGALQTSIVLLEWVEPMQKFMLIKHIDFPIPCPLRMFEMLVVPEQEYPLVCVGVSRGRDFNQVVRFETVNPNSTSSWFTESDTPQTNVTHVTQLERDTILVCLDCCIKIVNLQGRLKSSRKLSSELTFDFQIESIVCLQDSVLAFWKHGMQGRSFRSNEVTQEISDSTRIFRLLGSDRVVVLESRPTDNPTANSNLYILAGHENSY

[35] = target: TGFBR1 (human) (UniProt P36897)
[36] = tested on: FLT3 (human), P36888 [N841I]
[37] = target: NTRK1 (human) (UniProt P04629)
[38] = target: PDGFRA (human) (UniProt P16234)
[39] = target: FGR (human) (UniProt P09769)
[40] = target: FLT3 (human) (UniProt P36888)
[41] = target: MAPK4 (human) (UniProt P31152)

TXK (human), sequence (P42681 whole entry, looked up): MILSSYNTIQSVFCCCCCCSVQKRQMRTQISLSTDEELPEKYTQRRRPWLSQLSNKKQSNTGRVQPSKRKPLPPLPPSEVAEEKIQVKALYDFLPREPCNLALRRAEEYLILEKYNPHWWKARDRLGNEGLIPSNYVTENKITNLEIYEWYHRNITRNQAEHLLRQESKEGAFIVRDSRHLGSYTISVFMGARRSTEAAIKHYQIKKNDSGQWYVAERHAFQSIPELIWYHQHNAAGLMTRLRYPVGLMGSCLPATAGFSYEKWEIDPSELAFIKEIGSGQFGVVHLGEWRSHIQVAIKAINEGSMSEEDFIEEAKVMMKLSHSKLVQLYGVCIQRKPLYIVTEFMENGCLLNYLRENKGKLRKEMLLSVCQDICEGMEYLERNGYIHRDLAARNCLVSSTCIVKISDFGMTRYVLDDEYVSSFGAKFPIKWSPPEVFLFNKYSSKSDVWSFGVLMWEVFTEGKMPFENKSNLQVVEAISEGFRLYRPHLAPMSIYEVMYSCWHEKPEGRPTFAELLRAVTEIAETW
PIM2 (human), sequence (Q9P1W9 whole entry, looked up): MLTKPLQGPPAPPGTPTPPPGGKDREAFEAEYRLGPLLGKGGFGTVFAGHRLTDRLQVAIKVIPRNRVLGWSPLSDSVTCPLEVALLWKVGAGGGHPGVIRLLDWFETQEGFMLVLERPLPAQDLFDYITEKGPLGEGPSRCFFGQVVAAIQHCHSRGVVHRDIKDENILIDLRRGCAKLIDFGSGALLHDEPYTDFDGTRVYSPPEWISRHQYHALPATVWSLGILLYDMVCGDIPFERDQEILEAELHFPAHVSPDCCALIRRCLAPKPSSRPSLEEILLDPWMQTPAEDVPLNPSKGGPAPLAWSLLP

OCCCNc1cc(-c2ccnc(Nc3cccc(Cl)c3)n2)ccn1
kinase still bound, per cent of control [1]: 100% | kinase still bound, per cent of control [2]: 100% | kinase still bound, per cent of control [3]: 100% | kinase still bound, per cent of control [4]: 100% | kinase still bound, per cent of control [5]: 100% | kinase still bound, per cent of control [6]: 100% | kinase still bound, per cent of control [7]: 100% | kinase still bound, per cent of control [8]: 100% | kinase still bound, per cent of control [9]: 100% | kinase still bound, per cent of control [10]: 14% | kinase still bound, per cent of control [11]: 100% | kinase still bound, per cent of control [12]: 100% | kinase still bound, per cent of control [13]: 100% | kinase still bound, per cent of control [14]: 100% | kinase still bound, per cent of control [15]: 100% | kinase still bound, per cent of control [16]: 100% | kinase still bound, per cent of control [17]: 100% | kinase still bound, per cent of control [18]: 100% | kinase still bound, per cent of control [19]: 100% | kinase still bound, per cent of control [20]: 100% | kinase still bound, per cent of control [21]: 100% | kinase still bound, per cent of control [22]: 100% | kinase still bound, per cent of control [23]: 100% | kinase still bound, per cent of control [24]: 100% | kinase still bound, per cent of control [25]: 100% | kinase still bound, per cent of control [26]: 100% | kinase still bound, per cent of control [27]: 100% | kinase still bound, per cent of control [28]: 10% | kinase still bound, per cent of control [29]: 100% | kinase still bound, per cent of control [30]: 100% | kinase still bound, per cent of control [31]: 100% | kinase still bound, per cent of control [32]: 100% | kinase still bound, per cent of control [33]: 100% | kinase still bound, per cent of control [34]: 100% | kinase still bound, per cent of control [35]: 100% | kinase still bound, per cent of control [36]: 100% | kinase still bound, per cent of control [37]: 100% | kinase still bound, per cent of control [38]: 100% | kinase still bound, per cent of control [39]: 100% | kinase still bound, per cent of control [40]: 100% | kinase still bound, per cent of control [41]: 100%

C[C@@H](Oc1cc(-n2cnc3ccc(CN4CCN(C)CC4)cc32)sc1C(N)=O)c1ccccc1C(F)(F)F
kinase still bound, per cent of control [1]: 14% | kinase still bound, per cent of control [2]: 94% | kinase still bound, per cent of control [3]: 100% | kinase still bound, per cent of control [4]: 100% | kinase still bound, per cent of control [5]: 71% | kinase still bound, per cent of control [6]: 77% | kinase still bound, per cent of control [7]: 100% | kinase still bound, per cent of control [8]: 100% | kinase still bound, per cent of control [9]: 92% | kinase still bound, per cent of control [10]: 59% | kinase still bound, per cent of control [11]: 86% | kinase still bound, per cent of control [12]: 15% | kinase still bound, per cent of control [13]: 67% | kinase still bound, per cent of control [14]: 91% | kinase still bound, per cent of control [15]: 43% | kinase still bound, per cent of control [16]: 27% | kinase still bound, per cent of control [17]: 100% | kinase still bound, per cent of control [18]: 100% | kinase still bound, per cent of control [19]: 78% | kinase still bound, per cent of control [20]: 65% | kinase still bound, per cent of control [21]: 62% | kinase still bound, per cent of control [22]: 100% | kinase still bound, per cent of control [23]: 69% | kinase still bound, per cent of control [24]: 58% | kinase still bound, per cent of control [25]: 100% | kinase still bound, per cent of control [26]: 95% | kinase still bound, per cent of control [27]: 0.1% | kinase still bound, per cent of control [28]: 93% | kinase still bound, per cent of control [29]: 25% | kinase still bound, per cent of control [30]: 100% | kinase still bound, per cent of control [31]: 70% | kinase still bound, per cent of control [32]: 74% | kinase still bound, per cent of control [33]: 58% | kinase still bound, per cent of control [34]: 59% | kinase still bound, per cent of control [35]: 99% | kinase still bound, per cent of control [36]: 1.2% | kinase still bound, per cent of control [37]: 74% | kinase still bound, per cent of control [38]: 100% | kinase still bound, per cent of control [39]: 82% | kinase still bound, per cent of control [40]: 11% | kinase still bound, per cent of control [41]: 100%
